In ChEMBL document CHEMBL1955839, “Synthesis and structure-activity relationship of 4-amino-2-phenylpyrimidine derivatives as a series of novel GPR119 agonists” (Bioorg Med Chem, 2012):

How the values were obtained:
[1] = biological target: T1, Glucose-dependent insulinotropic receptor (Homo sapiens) (UniProt Q8TDV5); assay: Agonist activity at human GPR119 expressed in HEK293 cells co-transfected with pCRE-Luc assessed as induction in cAMP level after 6 hrs by luciferase reporter gene assay relative to 10 uM of 2-{[2-(4-Bromophenyl)-6-methylpyrimidin-4-yl]amino}ethanol; type: functional, cell-based
T1 sequence (whole entry): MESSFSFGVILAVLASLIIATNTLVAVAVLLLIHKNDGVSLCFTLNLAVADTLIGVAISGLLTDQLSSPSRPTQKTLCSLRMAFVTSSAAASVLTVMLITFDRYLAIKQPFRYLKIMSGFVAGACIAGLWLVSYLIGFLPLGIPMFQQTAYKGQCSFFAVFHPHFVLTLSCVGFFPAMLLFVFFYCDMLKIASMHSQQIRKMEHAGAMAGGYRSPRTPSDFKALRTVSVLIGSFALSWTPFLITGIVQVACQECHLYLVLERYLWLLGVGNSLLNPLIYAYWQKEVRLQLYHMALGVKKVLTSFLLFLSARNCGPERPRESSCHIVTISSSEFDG

[2] = biological target: T1, Glucose-dependent insulinotropic receptor (Homo sapiens); assay: Agonist activity at human GPR119 expressed in HEK293 cells co-transfected with pCRE-Luc assessed as induction in cAMP level at 10 uM after 6 hrs by luciferase reporter gene assay relative to 10 uM of 2-{[2-(4-Bromophenyl)-6-methylpyrimidin-4-yl]amino}ethanol; type: functional, cell-based
[3] = test system: Mus musculus; assay: Antihyperglycemic activity in ICR mouse assessed as blood glucose lowering ratio at 10 mg/kg, po administered 10 mins prior glucose challenge measured after 30 mins by oral glucose tolerance test; type: functional
[4] = biological target: T2, Cytochrome P450 1A2 (Homo sapiens, UniProt P05177); assay: Inhibition of CYP1A2; type: ADME
T2 sequence (P05177 whole entry): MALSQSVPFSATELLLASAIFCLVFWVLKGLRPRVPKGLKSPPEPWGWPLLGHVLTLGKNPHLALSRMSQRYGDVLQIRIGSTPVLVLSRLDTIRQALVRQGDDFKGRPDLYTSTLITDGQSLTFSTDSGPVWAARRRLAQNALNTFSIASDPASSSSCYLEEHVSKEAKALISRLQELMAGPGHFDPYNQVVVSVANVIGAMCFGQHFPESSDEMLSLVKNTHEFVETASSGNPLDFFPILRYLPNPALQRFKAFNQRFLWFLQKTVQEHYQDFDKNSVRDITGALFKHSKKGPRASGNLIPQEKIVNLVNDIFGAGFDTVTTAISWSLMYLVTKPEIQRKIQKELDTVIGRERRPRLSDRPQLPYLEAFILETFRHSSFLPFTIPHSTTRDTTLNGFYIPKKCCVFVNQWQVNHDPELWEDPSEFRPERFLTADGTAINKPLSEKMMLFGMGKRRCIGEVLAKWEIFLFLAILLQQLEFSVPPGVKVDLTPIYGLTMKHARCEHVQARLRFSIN

[5] = test system: Mus musculus; assay: Antihyperglycemic activity in ICR mouse assessed as blood glucose lowering ratio at 30 mg/kg, po administered 10 mins prior glucose challenge measured after 30 mins by oral glucose tolerance test; type: functional
[6] = Tmax in rat at 3 mg/kg, po; type: ADME, organism-based; set-up: dose 3 mg/kg, route oral; details: in vivo
[7] = Half life in rat at 1 mg/kg, iv; type: ADME, organism-based; set-up: dose 1 mg/kg, route intravenous; details: in vivo
[8] = Volume of distribution at steady state in rat at 1 mg/kg, iv; type: ADME, organism-based; set-up: dose 1 mg/kg, route intravenous; details: in vivo, read-out: Vdss
[9] = Total clearance in rat at 1 mg/kg, iv; type: ADME, organism-based; set-up: dose 1 mg/kg, route intravenous; details: in vivo
[10] = Oral bioavailability in rat at 3 mg/kg; type: ADME, organism-based; details: in vivo

Row | Compound | EC [1] | Intrinsic activity [2] | Activity [3] | IC50 [4] | also measured
1 | CCc1cc(NCCO)nc(-c2ccc(Br)cc2)n1 | 5.9 µM | 146% | – | – | –
2 | Cc1cc(NCCO)nc(-c2ccc(I)cc2)n1 | 19 µM | 66% | – | – | –
3 | OCCNc1cc(C(F)F)nc(-c2ccc(Br)cc2)n1 | 8.2 µM | 195% | – | – | –
4 | Cc1cc(NC(C)CO)nc(-c2ccc(Br)cc2)n1 (stereo unspecified) | 13 µM | 82% | – | – | –
5 | Cc1cc(NCC(C)O)nc(-c2ccc(Br)cc2)n1 (stereo unspecified) | 3.6 µM | 209% | – | – | –
6 | Cc1cc(NCCc2cccnc2)nc(-c2ccc(Br)cc2)n1 | 0.73 µM | 772% | 17% | < 91 nM | –
7 | Cc1cc(NCc2cccnc2)nc(-c2ccc(Br)cc2)n1 | 1.3 µM | 294% | – | < 46 nM | –
8 | Cc1cc(NCCO)nc(-c2ccc(Br)cc2)n1 | – | – | – | 660 nM | Activity [5]: 17%
9 | COCCNc1cc(C)nc(-c2ccc(Br)cc2)n1 | 1.8 µM | 209% | 13% | < 91 nM | –
10 | Cc1cc(NCCc2ccc[n+]([O-])c2)nc(-c2ccc(Br)cc2)n1 | – | – | 38% | 970 nM | Tmax [6]: 15 min; half-life [7]: 72 min; Vd [8]: 2 L/kg; clearance [9]: 20.1 mL/min/kg; bioavailability [10]: 56%
11 | Cc1cc(NCCO)nc(-c2ccc(Cl)cc2)n1 | 12 µM | 48% | – | – | –
12 | Cc1cc(NCC(C)C)nc(-c2ccc(Br)cc2)n1 | 0.91 µM | 322% | 24% | < 91 nM | –
